Measured values as given in paper PMC3676450 (Journal of medicinal chemistry, 2013).

Experiments:
hM1 mAcChR = biological target: T1, hM1 mAcChR (Homo sapiens, UniProt P11229); test: [3H]N-methylscopolamine; type: binding
T1 sequence (P11229 1-460): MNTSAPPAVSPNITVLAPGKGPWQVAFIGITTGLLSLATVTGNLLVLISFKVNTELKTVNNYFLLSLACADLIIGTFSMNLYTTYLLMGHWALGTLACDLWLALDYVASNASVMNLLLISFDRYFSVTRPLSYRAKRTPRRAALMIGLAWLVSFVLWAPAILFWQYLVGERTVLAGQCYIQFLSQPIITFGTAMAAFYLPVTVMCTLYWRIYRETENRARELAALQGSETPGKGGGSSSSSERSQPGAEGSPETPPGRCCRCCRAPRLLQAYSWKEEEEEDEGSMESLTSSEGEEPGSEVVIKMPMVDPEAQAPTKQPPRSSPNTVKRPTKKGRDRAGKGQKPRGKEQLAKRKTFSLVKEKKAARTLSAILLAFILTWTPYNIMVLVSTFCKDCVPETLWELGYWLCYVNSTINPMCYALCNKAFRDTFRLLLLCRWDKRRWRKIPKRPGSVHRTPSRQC

hM5 mAcChR = biological target: T2, hM5 mAcChR (Homo sapiens, UniProt P08912); test: [3H]NMS binding to membranes from CHO-K1 cells expressing hM5
T2 sequence (P08912 1-532): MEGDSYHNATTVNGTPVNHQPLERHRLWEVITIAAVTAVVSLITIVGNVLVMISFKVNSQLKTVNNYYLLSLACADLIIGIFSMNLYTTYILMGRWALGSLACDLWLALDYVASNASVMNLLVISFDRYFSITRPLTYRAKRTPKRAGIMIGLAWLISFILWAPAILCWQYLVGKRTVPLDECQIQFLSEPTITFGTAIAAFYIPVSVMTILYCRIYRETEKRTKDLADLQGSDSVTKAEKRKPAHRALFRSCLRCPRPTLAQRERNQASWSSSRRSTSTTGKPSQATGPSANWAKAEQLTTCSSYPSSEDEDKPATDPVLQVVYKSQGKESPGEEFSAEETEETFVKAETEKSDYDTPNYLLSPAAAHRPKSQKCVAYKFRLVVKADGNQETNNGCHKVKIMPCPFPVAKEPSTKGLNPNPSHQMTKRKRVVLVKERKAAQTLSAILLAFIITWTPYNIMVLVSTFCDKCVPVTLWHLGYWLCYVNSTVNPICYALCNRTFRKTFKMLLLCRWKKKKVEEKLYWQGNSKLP

SMILES: CCN1CCC(c2ccccc2)=C(C(=O)OCCc2ccc(S(C)(=O)=O)cc2)C1 [Compound 27]
- binding affinity at M1 receptor (in words) (hM1 mAcChR): little affinity
- binding affinity at M5 receptor (in words) (hM5 mAcChR): little affinity

SMILES: COc1ccc(CCOC(=O)C2=C(c3ccccc3)CCN(Cc3ccc(OC)cc3)C2)cc1 [Compound 40]
- binding affinity at M1 receptor (in words) (hM1 mAcChR): eliminated affinity
- binding affinity at M5 receptor (in words) (hM5 mAcChR): eliminated affinity

SMILES: CCCN1CCC(c2ccccc2)=C(C(=O)OCCc2ccc(OC)cc2)C1 [Compound 43]
- binding affinity at M1 receptor (in words) (hM1 mAcChR): eliminated affinity
- binding affinity at M5 receptor (in words) (hM5 mAcChR): eliminated affinity

SMILES: COc1ccc(CCOC(=O)C2=C(c3ccccc3)CCN(C)C2)cc1 [Compound 42]
- increase in binding affinity at M1 relative to compound 8 (hM1 mAcChR): 8 fold
- increase in binding affinity at M5 relative to compound 8 (hM5 mAcChR): 14 fold

SMILES: CN1CCC(c2ccccc2)=C(C(=O)OCCc2cccc3ccccc23)C1 [Compound 57]
- M1/M5 (hM5 mAcChR): 24,400 (4.8)
- M2/M5 (hM5 mAcChR): >100,000 (>20)
- M3/M5 (hM5 mAcChR): >100,000 (>20)
- M4/M5 (hM5 mAcChR): >100,000 (>20)

SMILES: CN1CCC(c2ccccc2F)=C(C(=O)OCCc2ccc3c(c2)CCO3)C1 [Compound 63]
- M1/M5 (hM5 mAcChR): 5,270 (7.1)
- M2/M5 (hM5 mAcChR): 540 (0.7)
- M3/M5 (hM5 mAcChR): 4,890 (6.6)
- M4/M5 (hM5 mAcChR): 5,740 (7.8)

SMILES: CN1CCC(c2ccccc2)=C(C(=O)OCCc2ccc3c(c2)CCO3)C1 [Compound 45]
- M1/M5 (hM5 mAcChR): 290 (4.8)
- M2/M5 (hM5 mAcChR): 1,170 (20)
- M3/M5 (hM5 mAcChR): 2,840 (47)
- M4/M5 (hM5 mAcChR): 1,890 (32)

SMILES: COc1ccc(CCOC(=O)C2=C(c3cccc(F)c3)CCN(C)C2)cc1OC [Compound 66]
- M2/M5 (hM5 mAcChR): >100,000 (>30)
- M3/M5 (hM5 mAcChR): >100,000 (>30)
- M4/M5 (hM5 mAcChR): >100,000 (>30)

SMILES: CCN1CCC(c2ccccc2)=C(C(=O)OCCc2cccc(OC)c2)C1 [Compound 18]
- increase in binding affinity at M5 relative to compound 8 (hM5 mAcChR): 3 fold
- increase in binding affinity at M5 relative to compound 17 (hM5 mAcChR): 8 fold

SMILES: CN1CC=C(c2ccccc2C(=O)OCCc2ccc3c(c2)CCO3)CC1 [Compound 89]
- binding affinity at M1 receptor (in words) (hM1 mAcChR): complete loss of binding affinity
- binding affinity at M5 receptor (in words) (hM5 mAcChR): complete loss of binding affinity

SMILES: CCCCN1CCC(c2ccccc2)=C(C(=O)OCCc2ccc(OC)cc2)C1 [Compound 44]
- binding affinity at M1 receptor (in words) (hM1 mAcChR): eliminated affinity
- binding affinity at M5 receptor (in words) (hM5 mAcChR): eliminated affinity

SMILES: CCN1CCC(c2ccccc2)=C(C(=O)OCCc2ccc3c(c2)CCO3)C1 [Compound 28]
- M1/M5 (hM5 mAcChR): 1,390 (6.0)
- M2/M5 (hM5 mAcChR): >100,000 (>435)
- M3/M5 (hM5 mAcChR): 31,100 (135)
- M4/M5 (hM5 mAcChR): 10,500 (46)
